The target in one test is T1, DDB1 (Homo sapiens, UniProt Q16531, D705G/DEL396-460/DEL463-701/I704S/T703N).
T1 construct: His6 (N, cleaved yes); TEV protease cleavage site (N, cleaved yes); made in house; host or cells: SF9 insect cells, Bac-to-Bac baculovirus, pFastBacHTB vector
Nature of the test: SPR binding assay to immobilized DDB1ΔBPB. To be noted: binding affinities to DDB1. As for the experimental part:
The binding affinities of heterobifunctional compounds to DDB1 were determined by SPR assay (FIG. 1A-1B). Purified DDB1ΔBPB proteins were immobilized on a CM5 sensor chip, and a dose range of compound solutions were injected in multi-cycle kinetic format. Data were fit to a steady state model to provide equivalent dissociation constants (Kd).
Human DDB1ΔBPB (UniProt: Q16531. BPB domain, aa 396 to 705, is replaced with a GNGNSG linker) coding sequences were cloned into pFastBacHTB vector and were expressed in SF9 cells using Bac-to-Bac baculovirus expression system (Thermo Fisher Scientific). The expression constructs include an N-terminal His6-tag to facilitate the purification, and a TEV protease cleavage site in between. DDB1ΔBPB proteins were obtained from supernatant of cell lysates and purified through sequential application of Ni affinity column (Ni-NTA column, Bio-Rad) and size-exclusion column (Superdex 200 16/600GL column, GE Healthcare) chromatography. Protein tags were cleaved off by TEV protease, and the resulting untagged proteins were further purified by Ni affinity column. Purified proteins were verified by immunoblotting, analytic SEC, and LC-MS.
SPR studies were performed on a Biacore X100 plus instrument (GE Healthcare). Immobilization of purified DDB1ΔBPB was carried out at 25° C. using a CM5 sensor chip. The surface was pre-equilibrated in HBS-EP running buffer (10 mM HEPES, pH7.4, 150 mM NaCl, 3 mM EDTA, 0.05% P20), before it was activated with EDC/NHS. DDB1ΔBPB proteins were immobilized by amine coupling to a density of 10,000-12,000 resonance units (RUs) on flow cell FC2, whereas flow cell FC1 was used as reference. Both protein immobilized and reference surfaces were deactivated with 1M ethanolamine. All interaction experiments were performed at 25° C. Test compounds were prepared and serially diluted in HBS-EP running buffer containing final 5% DMSO (6-point two-fold serial dilution, 100 μM-3.125 μM final concentration of compounds). Compound solutions were injected individually in multi-cycle kinetic format without regeneration (flow rate 30 μl/min, association time 120 s, dissociation time 120 s). Sensorgrams from reference surfaces and blank injections were subtracted from the raw data (double-referencing) and the data was solvent-corrected prior to analysis. All data were fit to steady state affinity model using Biacore Evaluation Software to provide equivalent dissociation constants (Kd).
In general terms: In SPR one partner is held on a chip, and binding of the other changes the refractive index at the surface.

For another test, the system named is cyclin D1. The test is described as follows: Cyclin D1 percentage degradation in Calu-1 cells (immunoblotting). To be noted: 16 hours. In kind it is cell-based. The essentials: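 Cyclin D1 degradation was assessed by western blot. Clarified lysates, obtained by RIPA lysis with inhibitors and centrifugation at 13,000 rpm, were normalized by BCA protein assay and separated by SDS-PAGE. Bands were detected with Western ECL Substrate on a Bio-Rad ChemiDoc MP Imaging system and quantified in Image Lab software to derive percentage degradation.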
For orientation: Immunoblotting shows a protein as a band on a membrane.

For a further test, the target named is T2, CDK4 (Homo sapiens, UniProt P11802).
T2 construct: endogenous in cells; host or cells: Calu-1
The test is described as follows: CDK4 percentage degradation in Calu-1 cells (immunoblotting). The format is cell-based. The conditions noted are these: Calu-1 cells, 16 hours; for inhibition at 10 µM: read-out: CDK4 Degradation (10 μM); for inhibition at 0.2 µM: 200 nM, read-out: CDK4 Degradation (200 nM). The essentials:
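CDK4 degradation was measured by immunoblotting. Cells were washed in cold PBS and lysed in RIPA buffer with inhibitors for 30 min at 4° C., then spun at 13,000 rpm to clear. After BCA protein determination, lysates were heated at 99° C. for 5 min in Laemmli buffer, resolved on SDS-PAGE, imaged on a ChemiDoc MP with ECL substrate, and band intensities quantified.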

Bounds are passed on as bounds.

T1 sequence (Q16531 other isoform, or with tags, fused parts or gaps DEL396-460/DEL463-701/T703N/I704S/D705G): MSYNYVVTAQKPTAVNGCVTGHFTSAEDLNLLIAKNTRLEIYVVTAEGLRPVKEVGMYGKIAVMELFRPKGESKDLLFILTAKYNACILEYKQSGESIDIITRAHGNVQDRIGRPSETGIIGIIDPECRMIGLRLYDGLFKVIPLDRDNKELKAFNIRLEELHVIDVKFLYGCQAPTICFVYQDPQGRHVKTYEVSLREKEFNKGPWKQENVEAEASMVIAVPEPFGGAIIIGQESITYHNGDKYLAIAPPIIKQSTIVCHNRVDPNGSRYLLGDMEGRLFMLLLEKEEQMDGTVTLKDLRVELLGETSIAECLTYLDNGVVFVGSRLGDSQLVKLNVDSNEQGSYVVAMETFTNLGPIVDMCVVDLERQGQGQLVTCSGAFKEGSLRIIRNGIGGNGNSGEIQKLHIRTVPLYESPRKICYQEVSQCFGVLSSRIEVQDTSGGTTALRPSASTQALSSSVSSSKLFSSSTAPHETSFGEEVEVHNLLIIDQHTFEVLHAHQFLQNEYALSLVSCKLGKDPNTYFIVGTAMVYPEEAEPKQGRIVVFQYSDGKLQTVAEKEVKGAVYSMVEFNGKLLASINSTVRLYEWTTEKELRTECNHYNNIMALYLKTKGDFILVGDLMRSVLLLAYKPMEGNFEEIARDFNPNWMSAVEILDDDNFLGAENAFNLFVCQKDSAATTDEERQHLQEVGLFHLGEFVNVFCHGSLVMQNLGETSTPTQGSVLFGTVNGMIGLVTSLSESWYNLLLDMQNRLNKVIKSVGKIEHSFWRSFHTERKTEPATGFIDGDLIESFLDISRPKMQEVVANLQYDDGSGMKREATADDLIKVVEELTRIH
T2 sequence (P11802 2-303 limits assumed): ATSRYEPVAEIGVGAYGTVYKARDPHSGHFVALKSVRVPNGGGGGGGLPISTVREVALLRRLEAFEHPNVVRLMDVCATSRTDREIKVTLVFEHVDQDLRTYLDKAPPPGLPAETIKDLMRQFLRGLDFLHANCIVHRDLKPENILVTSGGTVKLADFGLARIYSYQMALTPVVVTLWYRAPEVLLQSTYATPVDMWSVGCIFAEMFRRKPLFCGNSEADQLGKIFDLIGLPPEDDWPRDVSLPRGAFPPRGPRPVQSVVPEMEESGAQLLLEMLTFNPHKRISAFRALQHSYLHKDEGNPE
T2 sequence (P24385 whole entry partner): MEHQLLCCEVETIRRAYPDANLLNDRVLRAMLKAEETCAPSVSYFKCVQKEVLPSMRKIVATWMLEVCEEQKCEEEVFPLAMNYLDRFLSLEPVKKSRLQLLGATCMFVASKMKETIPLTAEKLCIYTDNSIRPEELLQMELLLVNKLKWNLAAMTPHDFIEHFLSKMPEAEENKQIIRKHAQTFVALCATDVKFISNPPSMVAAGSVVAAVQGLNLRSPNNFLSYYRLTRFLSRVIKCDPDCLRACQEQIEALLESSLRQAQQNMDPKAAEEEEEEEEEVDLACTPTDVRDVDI
T2 sequence (Q16531 2-1140 limits assumed, further chain): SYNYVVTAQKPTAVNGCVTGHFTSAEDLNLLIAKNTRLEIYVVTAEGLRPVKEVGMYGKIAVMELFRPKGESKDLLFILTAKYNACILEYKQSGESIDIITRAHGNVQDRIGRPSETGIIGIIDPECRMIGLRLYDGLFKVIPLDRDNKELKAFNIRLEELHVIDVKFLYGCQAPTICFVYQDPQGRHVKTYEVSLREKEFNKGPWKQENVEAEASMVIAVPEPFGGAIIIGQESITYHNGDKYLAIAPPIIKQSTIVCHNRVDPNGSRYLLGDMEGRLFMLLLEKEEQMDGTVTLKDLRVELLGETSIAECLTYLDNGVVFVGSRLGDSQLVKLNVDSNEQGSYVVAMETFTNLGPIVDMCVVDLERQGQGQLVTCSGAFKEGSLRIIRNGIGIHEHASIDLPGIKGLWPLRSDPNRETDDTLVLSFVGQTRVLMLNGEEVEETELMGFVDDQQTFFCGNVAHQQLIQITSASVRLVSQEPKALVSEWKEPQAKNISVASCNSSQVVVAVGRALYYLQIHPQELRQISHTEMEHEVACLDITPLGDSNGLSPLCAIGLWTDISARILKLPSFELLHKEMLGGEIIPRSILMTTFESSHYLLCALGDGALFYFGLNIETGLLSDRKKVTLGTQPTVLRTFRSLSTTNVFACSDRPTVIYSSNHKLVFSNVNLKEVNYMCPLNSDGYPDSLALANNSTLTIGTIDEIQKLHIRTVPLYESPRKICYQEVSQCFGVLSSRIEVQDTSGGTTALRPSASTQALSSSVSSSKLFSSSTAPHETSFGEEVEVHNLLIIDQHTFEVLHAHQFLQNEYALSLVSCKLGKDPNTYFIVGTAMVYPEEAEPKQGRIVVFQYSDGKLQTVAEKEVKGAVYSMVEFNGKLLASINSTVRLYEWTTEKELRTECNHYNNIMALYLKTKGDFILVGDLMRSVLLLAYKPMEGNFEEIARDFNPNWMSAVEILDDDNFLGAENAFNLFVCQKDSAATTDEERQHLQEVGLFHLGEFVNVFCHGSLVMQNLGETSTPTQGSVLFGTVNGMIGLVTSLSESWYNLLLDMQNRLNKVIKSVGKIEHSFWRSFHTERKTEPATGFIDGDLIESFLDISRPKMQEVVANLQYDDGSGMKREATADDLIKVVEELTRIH

As to `Cc1cnc(NC(=O)c2ccc(NCCOCCOCCOCCOCCOCCNC(=O)CN3CCN(c4ccc(Nc5ncc(F)c(-c6cc(F)c7nc(C)n(C(C)C)c7c6)n5)nc4)CC3)cc2C)s1` [CPD-021, 4-((1-(4-(6-((5-Fluoro-4-(4-fluoro-1-isopropyl-2-methyl-1H-benzo[d]imidazol-6-yl)pyrimidin-2-yl)amino)pyridin-3-yl)piperazin-1-yl)-2-oxo-6,9,12,15,18-pentaoxa-3-azaicosan-20-yl)amino)-2-methyl-N-(5-methylthiazol-2-yl)benzamide], the Kd (usually the free concentration of one partner at which half of the binding sites on the other are occupied at equilibrium, for simple one-to-one binding) at DDB1 lay in the range of 20 to 50 µM. In the test with cyclin D1, the “CyclinD1 Degradation (10 μM)” value is “A (protein percentage degradation >= 80%)”. In addition, the inhibition at 10 µM on CDK4 is 50 to 80%.
In the case of `CC(=O)c1c(C)c2cnc(Nc3ccc(N4CCN(CC(=O)NCCOCCOCCOCCOCCOCCNc5ccc(C(=O)Nc6nc(Br)c(C)s6)c(C)c5)CC4)cn3)nc2n(C2CCCC2)c1=O` [CPD-044, 4-((1-(4-(6-((6-Acetyl-8-cyclopentyl-5-methyl-7-oxo-7,8-dihydropyrido[2,3-d]pyrimidin-2-yl)amino)pyridin-3-yl)piperazin-1-yl)-2-oxo-6,9,12,15,18-pentaoxa-3-azaicosan-20-yl)amino)-N-(4-bromo-5-methylthiazol-2-yl)-2-methylbenzamide], the Kd at DDB1 is under 20 µM. The “CyclinD1 Degradation (200 nM)” value with cyclin D1 was “A (protein percentage degradation >=80%)”. Also, the inhibition at 0.2 µM at CDK4 lay within 50 to 80%.
For `CC(=O)c1c(C)c2cnc(Nc3ccc(N4CCN(CC(=O)NCCOCCOCCOCCOCCOCCNc5ccc(C(=O)Nc6nc(C(C)C)c(C)s6)c(C)c5)CC4)cn3)nc2n(C2CCCC2)c1=O` [CPD-043, 4-((1-(4-(6-((6-Acetyl-8-cyclopentyl-5-methyl-7-oxo-7,8-dihydropyrido[2,3-d]pyrimidin-2-yl)amino)pyridin-3-yl)piperazin-1-yl)-2-oxo-6,9,12,15,18-pentaoxa-3-azaicosan-20-yl)amino)-N-(4-isopropyl-5-methylthiazol-2-yl)-2-methylbenzamide] the same measures were under 20 µM, “A (protein percentage degradation >=80%)” and over 80%.
Take `COc1ccc(NC(=O)c2ccccc2NC(C)=O)nc1` [B1-83, 2-acetamido-N-(5-methoxypyridin-2-yl)benzamide]: the Kd at DDB1 lay within 20 to 50 µM.
On the same count and under the same terms, the same measure for `CC(=O)Nc1ccccc1C(=O)Nc1ccc(C)c(C2CC2)n1` [B1-73, 2-acetamido-N-(6-cyclopropyl-5-methylpyridin-2-yl)benzamide]: over 100 µM.
For `Cc1cnc(NC(=O)c2ccc(NCCOCCOCCOCCOCCOCCNC(=O)CN3CCN(c4ccc(Nc5ncc6cc(C(=O)N(C)C)n(C7CCCC7)c6n5)nc4)CC3)cc2C)s1` [CPD-023, 7-Cyclopentyl-N,N-dimethyl-2-((5-(4-(20-((3-methyl-4-((5-methylthiazol-2-yl)carbamoyl)phenyl)amino)-2-oxo-6,9,12,15,18-pentaoxa-3-azaicosyl)piperazin-1-yl)pyridin-2-yl)amino)-7H-pyrrolo[2,3-d]pyrimidine-6-carboxamide], at DDB1, the Kd fell in the range of 50 to 100 µM. Besides, the “CyclinD1 Degradation (10 μM)” value with cyclin D1 is given as “A (protein percentage degradation >= 80%)”. Besides, the inhibition at 10 µM on CDK4 is over 80%.
With `CCc1nc(NC(=O)c2ccc(NCCOCCOCCOCCOCCOCCNC(=O)CN3CCN(c4ccc(Nc5ncc6c(C)c(C(C)=O)c(=O)n(C7CCCC7)c6n5)nc4)CC3)cc2C)sc1C` [CPD-047, 4-((1-(4-(6-((6-Acetyl-8-cyclopentyl-5-methyl-7-oxo-7,8-dihydropyrido[2,3-d]pyrimidin-2-yl)amino)pyridin-3-yl)piperazin-1-yl)-2-oxo-6,9,12,15,18-pentaoxa-3-azaicosan-20-yl)amino)-N-(4-ethyl-5-methylthiazol-2-yl)-2-methylbenzamide], on DDB1, the Kd was under 20 µM. Besides, the “CyclinD1 Degradation (200 nM)” value in the test with cyclin D1 is “A (protein percentage degradation >=80%)”. At CDK4, the inhibition at 0.2 µM is over 80%.
As to `CC(=O)NCCCCCCCCC(=O)Nc1ccccc1C(=O)Nc1nc(C)c(C)s1` [B1-79, 2-(9-acetamidononanamido)-N-(4,5-dimethylthiazol-2-yl)benzamide], on DDB1, the Kd was in the range of 20 to 50 µM.
Consider `Cc1cnc(NC(=O)c2ccc(NCCOCCOCCOCCOCCOCCNC(=O)CN3CCN(Cc4ccc(Nc5ncc(F)c(-c6cc(F)c7nc(C)n(C(C)C)c7c6)n5)nc4)CC3)cc2C)s1` [CPD-020, 4-((1-(4-((6-((5-Fluoro-4-(4-fluoro-1-isopropyl-2-methyl-1H-benzo[d]imidazol-6-yl)pyrimidin-2-yl)amino)pyridin-3-yl)methyl)piperazin-1-yl)-2-oxo-6,9,12,15,18-pentaoxa-3-azaicosan-20-yl)amino)-2-methyl-N-(5-methylthiazol-2-yl)benzamide], for which the Kd at DDB1 was under 20 µM. In the test with cyclin D1, the “CyclinD1 Degradation (10 μM)” value is on record as “D (protein percentage degradation < 30%)”. Besides, the inhibition at 10 µM at CDK4 is under 30%.
The compound `Cc1ccccc1C(=O)Nc1nc(C(C)C)c(C)s1` [B1-3, N-(4-isopropyl-5-methylthiazol-2-yl)-2-methylbenzamide] yielded a Kd on DDB1 of 50 to 100 µM.
The same measure, in the same setting: the value for `CNc1ccc(C(=O)Nc2ccc(C)cn2)c(NC(C)=O)c1` [B1-88, 2-acetamido-4-(methylamino)-N-(5-methylpyridin-2-yl)benzamide] was under 20 µM; that for `COc1ccc(NC(=O)c2ccccc2NC(C)=O)nn1` [B1-53, 2-acetamido-N-(6-methoxypyridazin-3-yl)benzamide] was 20 to 50 µM; that for `Cc1cnc(NC(=O)c2ccc(NCCOCCOCCOCCOCCOCCN)cc2C)s1` [BL1-24, 4-((17-amino-3,6,9,12,15-pentaoxaheptadecyl)amino)-2-methyl-N-(5-methylthiazol-2-yl)benzamide] was under 20 µM.
For `CCc1nc(NC(=O)c2ccccc2C)sc1C` [B1-5, N-(4-ethyl-5-methylthiazol-2-yl)-2-methylbenzamide], the dissociation constant Kd on DDB1 lay in the range of 20 to 50 µM.
The compound `Cc1ccccc1C(=O)Nc1nc(Br)c(C)s1` [B1-2, N-(4-bromo-5-methylthiazol-2-yl)-2-methylbenzamide] returned a Kd at DDB1 of over 100 µM.
The compound `CNc1ccc(C(=O)Nc2nc(C)c(C)s2)c(NC(C)=O)c1` [B1-67, 2-acetamido-N-(4,5-dimethylthiazol-2-yl)-4-(methylamino)benzamide] showed a Kd at DDB1 of 20 to 50 µM.
On the same count and under the same terms, the value for `CC(=O)Nc1ccccc1C(=O)Nc1ccc(N(C)C)nn1` [B1-71, 2-acetamido-N-(6-(dimethylamino)pyridazin-3-yl)benzamide] was 20 to 50 µM.
At DDB1, `Cc1ccccc1C(=O)Nc1nc(C)c(C)s1` [B1-1, N-(4,5-dimethylthiazol-2-yl)-2-methylbenzamide] had a Kd of over 100 µM.
Same read-out and setting: the same measure for `COC(=O)c1nc(NC(=O)c2ccc(NCCOCCOCCOCCOCCOCCN)cc2C)sc1C` [BL1-38, methyl 2-(4-((17-amino-3,6,9,12,15-pentaoxaheptadecyl)amino)-2-methylbenzamido)-5-methylthiazole-4-carboxylate]: under 20 µM; for `Cc1cc(NCCOCCOCCOCCOCCOCCN)ccc1C(=O)Nc1nc(C)c(C)s1` [BL1-36, 4-((17-amino-3,6,9,12,15-pentaoxaheptadecyl)amino)-N-(4,5-dimethylthiazol-2-yl)-2-methylbenzamide]: under 20 µM.
Regarding `CC(=O)Nc1ccccc1C(=O)Nc1nc(C)c(C)s1` [B1-6, 2-acetamido-N-(4,5-dimethylthiazol-2-yl)benzamide], the Kd at DDB1 is 20 to 50 µM.
